Like-named read-outs stand apart in the source and are kept apart here.
Key:
Format in all cases: cell-based
NCI-H747 cells = experiment: DHX9 cellular proliferation assay (CellTiter-Glo), NCI-H747 (CRC-MSS); details: Homo sapiens
[1] = system: circBRIP1 in HCT116 cells; experiment: DHX9 circBRIP1 cellular target engagement SYBR Green assay (qPCR); details: Homo sapiens, HCT-116, circBRIP1, HCT116 cells; SyBr assay (marked ^+); read-out: DHX9 Cellular Target Engagement EC50
LS411N cells = experiment: DHX9 cellular proliferation assay (CellTiter-Glo), LS411N (CRC-MSI); details: Homo sapiens, LS-411N, read-out: LS411N (CRC-MSI-H) Antiproliferative IC50
[2] = NCI-H747, NCI-H747, CRC-MSS, performed at Pharmaron, read-out: H747 (CRC-MSS) Antiproliferative IC50
[3] = LS411N, CRC-MSI-H, performed at Pharmaron
[4] = NCI-H747, read-out: H747 (CRC-MSS) Antiproliferative IC50

| Compound | IC50 (NCI-H747 cells; [2]) | EC50 [1] | IC50 (LS411N cells; [3]) | IC50 (NCI-H747 cells; [4]) | IC50 (LS411N cells) |
| --- | --- | --- | --- | --- | --- |
| CS(=O)(=O)Nc1cc(Br)cc(NC(=O)c2cc(-c3ccccc3O)cs2)c1 [Example 21] | > 10000 nM | 260 nM | 791 nM | – | – |
| Cc1sc(C(=O)Nc2cc(Cl)cc(NS(C)(=O)=O)c2)cc1-c1ncccn1 [Example 22] | > 10000 nM | 35.8 nM | 115 nM | – | – |
| Cc1sc(C(=O)Nc2cc(Br)cc(NS(C)(=O)=O)c2)cc1-c1ccccn1 [Example 23] | > 10000 nM | 54.2 nM | 53.1 nM | – | – |
| CS(=O)(=O)Nc1cc(Br)cc(NC(=O)c2cc(-c3ncccn3)cs2)c1 [Example 25] | > 10000 nM | 48 nM | 99.1 nM | – | – |
| CS(=O)(=O)Nc1cc(Cl)cc(NC(=O)c2cc(-c3ncccn3)cs2)c1 [Example 26] | > 10000 nM | 60.9 nM | 217 nM | – | – |
| CCS(=O)(=O)Nc1cc(Cl)cc(NC(=O)c2cc(-c3ncccn3)c(C)s2)c1 [Example 27] | > 10000 nM | 49.7 nM | 117 nM | – | – |
| CCS(=O)(=O)Nc1cc(Cl)cc(NC(=O)c2cc(-c3ccccn3)c(C)s2)c1 [Example 28] | > 10000 nM | 25.8 nM | 78.8 nM | – | – |
| CS(=O)(=O)Nc1cc(Cl)cc(NC(=O)c2cc(-c3ncccc3OCc3ccccc3)cs2)c1 [Example 29] | 9280 nM | 51.9 nM | 124 nM | – | – |
| CS(=O)(=O)Nc1cc(Br)cc(NC(=O)c2cc(-c3ncccc3OCc3ccccc3)cs2)c1 [Example 32] | > 10000 nM | 48.2 nM | 101 nM | – | – |
| Cc1cccnc1-c1csc(C(=O)Nc2cc(Br)cc(NS(C)(=O)=O)c2)c1 [Example 33] | > 10000 nM | 21.5 nM | 116 nM | – | – |
| Cc1sc(C(=O)Nc2cc(Cl)cc(NS(C)(=O)=O)c2)cc1-c1ncccc1OCc1ccccc1 [Example 34] | 8670 nM | 13 nM | 14.1 nM | – | – |
| Cc1sc(C(=O)Nc2cc(Cl)cc(NS(C)(=O)=O)c2)cc1-c1ccc(F)cn1 [Example 35] | > 10000 nM | 37.2 nM | 76.8 nM | – | – |
| CS(=O)(=O)Nc1cc(Br)cc(NC(=O)c2cnn(-c3ccccn3)c2)c1 [Example 36, N-(3-bromo-5-(methylsulfonamido)phenyl)-1-(pyridin-2-yl)-1H-pyrazole-4-carboxamide] | – | 313 nM | – | > 10000 nM | 1080 nM |
| CS(=O)(=O)Nc1cc(Cl)cc(NC(=O)c2cnn(-c3ccccn3)c2)c1 [Example 37] | > 10000 nM | 830 nM | 3470 nM | – | – |
| Cc1ccc(-n2cc(C(=O)Nc3cc(Br)cc(NS(C)(=O)=O)c3)cn2)nc1 [Example 42] | > 10000 nM | 308 nM | 917 nM | – | – |
| Cc1cccnc1-n1cc(C(=O)Nc2cc(Br)cc(NS(C)(=O)=O)c2)cn1 [Example 49] | > 10000 nM | 434 nM | 901 nM | – | – |
| CS(=O)(=O)Nc1cc(Br)cc(NC(=O)c2cnn(-c3ccccc3OCc3ccccc3)c2)c1 [Example 51] | 6470 nM | 188 nM | 259 nM | – | – |
| CS(=O)(=O)Nc1cc(Br)cc(NC(=O)c2cnn(-c3ccc(N4CCOCC4)cn3)c2)c1 [Example 55] | > 10000 nM | 143 nM | 1060 nM | – | – |
| Cc1cc(C(=O)Nc2cc(Cl)cc(NS(C)(=O)=O)c2)cn1-c1ncccn1 [Example 59] | > 10000 nM | 104 nM | 357 nM | – | – |
| CS(=O)(=O)Nc1cc(Cl)cc(NC(=O)c2cnn(-c3ncccc3OCc3cccc(F)c3)c2)c1 [Example 65] | > 10000 nM | 63.1 nM | 109 nM | – | – |
| CS(=O)(=O)Nc1cc(Br)cc(NC(=O)c2cnn(-c3cc(C#N)ccc3OCc3ccccc3)c2)c1 [Example 67] | > 10000 nM | 297 nM | 1050 nM | – | – |
| CS(=O)(=O)Nc1cc(Cl)cc(NC(=O)c2cnn(-c3ncccc3OCc3cccc(Cl)c3)c2)c1 [Example 70] | > 10000 nM | 107 nM | 375 nM | – | – |

| Compound | IC50 (NCI-H747 cells; [2]) | EC50 [1] | IC50 (LS411N cells; [3]) | IC50 (NCI-H747 cells; [4]) | IC50 (LS411N cells) |
| --- | --- | --- | --- | --- | --- |
| Cc1cccnc1-c1cc(C(=O)Nc2cc(Cl)cc(NS(C)(=O)=O)c2)cn1C [Example 81] | > 10000 nM | 290 nM | 1070 nM | – | – |
| Cn1cc(C(=O)Nc2cc(Cl)cc(NS(C)(=O)=O)c2)cc1-c1ncccn1 [Example 82] | > 10000 nM | 73.2 nM | 134 nM | – | – |
| Cc1cccnc1-c1cc(C(=O)Nc2cc(Br)cc(NS(C)(=O)=O)c2)cn1C [Example 84, N-(3-bromo-5-(methylsulfonamido)phenyl)-1-methyl-5-(3-methylpyridin-2-yl)-1H-pyrrole-3-carboxamide] | – | 194 nM | – | > 10000 nM | 385 nM |
| CC1CN(c2ccc(-n3cc(C(=O)Nc4cc(Cl)cc(NS(C)(=O)=O)c4)cn3)nc2)CCO1 (stereo not drawn) [Example 92] | > 10000 nM | 281 nM | 1100 nM | – | – |
| Cc1cc(C(=O)Nc2cc(Cl)cc(NS(C)(=O)=O)c2)cn1-c1ccc(N2CCOCC2)cn1 [Example 93] | > 10000 nM | 30 nM | 253 nM | – | – |
| Cc1cc(C(=O)Nc2cc(Cl)cc(NS(C)(=O)=O)c2)cn1-c1ccc(N2CCN(C)C(=O)C2)cn1 [Example 94] | > 10000 nM | 292 nM | 3200 nM | – | – |
| CS(=O)(=O)Nc1cc(Br)cc(NC(=O)c2cc(-c3ccccn3)n(CC#N)c2)c1 [Example 95, N-(3-bromo-5-methanesulfonamidophenyl)-1-(cyanomethyl)-5-(pyridin-2-yl)-1H-pyrrole-3-carboxamide] | – | 179 nM | – | 7990 nM | 1020 nM |
| Cc1cccnc1-c1nc(C(=O)Nc2cc(Br)cc(NS(C)(=O)=O)c2)cn1C [Example 96, N-(3-bromo-5-(methylsulfonamido)phenyl)-1-methyl-2-(3-methylpyridin-2-yl)-1H-imidazole-4-carboxamide] | > 10000 nM | 9630 nM | > 10000 nM | – | – |
| CS(=O)(=O)Nc1cc(Cl)cc(NC(=O)c2cc(-c3ccccc3OCc3ccccc3)cs2)c1 [Example 111] | > 10000 nM | 161 nM | 318 nM | – | – |
| CS(=O)(=O)Nc1cc(Cl)cc(NC(=O)c2cc(-c3ccccc3)c(CO)s2)c1 [Example 120, N-(3-chloro-5-(methylsulfonamido)phenyl)-5-(hydroxymethyl)-4-phenylthiophene-2-carboxamide] | 6980 nM | 144 nM | 1070 nM | – | – |
| Cc1cc(C(=O)Nc2cc(Cl)cc(NS(C)(=O)=O)c2)cn1-c1ccccc1 [Example 129, N-(3-chloro-5-(methylsulfonamido)phenyl)-5-methyl-1-phenyl-1H-pyrrole-3-carboxamide] | > 10000 nM | 333 nM | 1090 nM | – | – |
| Cc1cccnc1-n1cc(C(=O)Nc2cc(Cl)cc(NS(C)(=O)=O)c2)cc1C [Example 130] | > 10000 nM | 489 nM | 1160 nM | – | – |
| CCc1cn2cc(C(=O)Nc3cc(Cl)cc(NS(C)(=O)=O)c3)ccc2n1 [Example 132] | > 10000 nM | > 10000 nM | > 10000 nM | – | – |
| Cc1cccnc1-c1cc(C(=O)Nc2cc(Cl)cc(NS(C)(=O)=O)c2)cn1CC(F)F [Example 143, N-(3-chloro-5-(methylsulfonamido)phenyl)-1-(2,2-difluoroethyl)-5-(3-methylpyridin-2-yl)-1H-pyrrole-3-carboxamide] | 8540 nM | 516 nM | 1090 nM | – | – |
| CS(=O)(=O)Nc1cc(Cl)cc(NC(=O)c2cc(-c3ccccn3)c(CO)s2)c1 [Example 163, N-(3-chloro-5-(methylsulfonamido)phenyl)-5-(hydroxymethyl)-4-(pyridin-2-yl)thiophene-2-carboxamide] | > 10000 nM | 70 nM | 609 nM | – | – |
| Cn1cc(C(=O)Nc2cc(Cl)cc(NS(C)(=O)=O)c2)cc1-c1ncc(F)cn1 [Example 171, N-(3-chloro-5-(methylsulfonamido)phenyl)-5-(5-fluoropyrimidin-2-yl)-1-methyl-1H-pyrrole-3-carboxamide] | > 10000 nM | 95.7 nM | 372 nM | – | – |
| CCOc1cnc(-c2cc(C(=O)Nc3cc(Cl)cc(NS(C)(=O)=O)c3)cn2C)nc1 [Example 172] | 6890 nM | 135 nM | 237 nM | – | – |
| Cn1cc(C(=O)Nc2cc(Cl)cc(NS(C)(=O)=O)c2)cc1-c1ncccc1OCc1cncc(F)c1 [Example 174, N-(3-chloro-5-(methylsulfonamido)phenyl)-5-(3-((5-fluoropyridin-3-yl)methoxy)pyridin-2-yl)-1-methyl-1H-pyrrole-3-carboxamide] | > 10000 nM | 7 nM | 33.3 nM | – | – |
| CS(=O)(=O)Nc1cc(Cl)cc(NC(=O)c2cc(-c3ccccn3)c(C3CC3)s2)c1 [Example 177, N-(3-chloro-5-(methylsulfonamido)phenyl)-5-cyclopropyl-4-(pyridin-2-yl)thiophene-2-carboxamide] | > 10000 nM | 84.8 nM | 251 nM | – | – |
| CS(=O)(=O)Nc1cc(Cl)cc(NC(=O)c2cc(-c3ncccc3Oc3ncccn3)cs2)c1 [Example 178, N-(3-chloro-5-(methylsulfonamido)phenyl)-4-(3-(pyrimidin-2-yloxy)pyridin-2-yl)thiophene-2-carboxamide] | > 10000 nM | 101 nM | 81.1 nM | – | – |
| CS(=O)(=O)Nc1cc(Cl)cc(NC(=O)c2cc(-c3ncccc3OCc3cccnc3)n(CC(F)(F)F)c2)c1 [Example 185] | 8380 nM | 73.3 nM | 139 nM | – | – |
| CS(=O)(=O)Nc1cc(Cl)cc(NC(=O)c2cnn(-c3ncccc3OCc3cncc(F)c3)c2)c1 [Example 186] | > 10000 nM | 161 nM | 2440 nM | – | – |

Reference: patent US12162867B2, “Inhibitors of RNA helicase DHX9 and uses thereof” (ACCENT THERAPEUTICS, INC., priority 2022, dated 2024)
